Some test systems named below: 786-0 renal; A549 NSCLC; ACHN renal; HCC-2998 colon; HOP-62 NSCLC; K-562 leukemia; OVCAR-3 ovarian; OVCAR-8 ovarian; RPMI-8226 leukemia; RXF 393 renal; SK-MEL-28 melanoma; SN12C renal; SNB-75 CNS.
What all share (assay): NCI tumour cell line growth inhibition, 48 h

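In this assay, cells in 96-well plates receive the compound at five concentrations for 48 hours. Endpoints are linearly interpolated between the surrounding concentrations. Definition used: TGI = concentration required for complete inhibition of growth.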

Take `NC(=O)c1cccc([C@@H]2O[C@H](CO)[C@@H](O)[C@H]2O)c1`: the TGI is 12.3 µM in the assay with 786-0 renal; over 100 µM in the assay on A549 NSCLC; 71.3 µM with ACHN renal; over 87.6 µM in the assay with HCC-2998 colon; 28 µM with HOP-62 NSCLC; 41.3 µM in the assay on K-562 leukemia. Also, the TGI in the assay with OVCAR-3 ovarian came out at 67.2 µM; in the assay on OVCAR-8 ovarian, 9.55 µM; with RPMI-8226 leukemia, 29.8 µM; in the assay on RXF 393 renal, 34.6 µM; in the assay with SK-MEL-28 melanoma it was 29.6 µM; with SN12C renal, 80 µM. In the assay on SNB-75 CNS, this molecule displayed a TGI of 14.4 µM.

Consider `CCOC(=O)c1c(N2CCCC2)[nH]c(=O)c(C(c2cccs2)c2c(O)c(C(=O)OCC)c(N3CCCC3)[nH]c2=O)c1O`, for which the TGI in the assay on 786-0 renal, in the assay on A549 NSCLC, with ACHN renal, in the assay on HCC-2998 colon, in the assay with HOP-62 NSCLC and in the assay on K-562 leukemia was over 100 µM in each case. The TGI in the assay on OVCAR-3 ovarian, with OVCAR-8 ovarian, in the assay on RPMI-8226 leukemia, in the assay with RXF 393 renal, in the assay on SK-MEL-28 melanoma and in the assay with SN12C renal was over 100 µM each time. The TGI with SNB-75 CNS is over 100 µM.

`c1ccc2cc3c(cc2c1)nc1ccccn13`: the TGI with 786-0 renal, in the assay with A549 NSCLC, in the assay with ACHN renal, with HCC-2998 colon, in the assay on HOP-62 NSCLC and with K-562 leukemia was over 100 µM in each case. Besides, the TGI with OVCAR-3 ovarian, in the assay on OVCAR-8 ovarian, in the assay with RPMI-8226 leukemia, in the assay with RXF 393 renal, in the assay with SK-MEL-28 melanoma and with SN12C renal was over 100 µM throughout. Moreover, the TGI in the assay with SNB-75 CNS is over 100 µM.

As for `COC(=O)c1c(-c2ccccc2)c2sc3ccccc3n2c1N`, the TGI with 786-0 renal, with A549 NSCLC, in the assay on ACHN renal, in the assay with HCC-2998 colon, in the assay with HOP-62 NSCLC and in the assay on K-562 leukemia was over 100 µM each time. For the same molecule, the TGI is over 100 µM with OVCAR-3 ovarian; over 100 µM in the assay with OVCAR-8 ovarian; over 100 µM in the assay with RPMI-8226 leukemia; 55.1 µM in the assay with RXF 393 renal; over 100 µM with SK-MEL-28 melanoma; 96.1 µM with SN12C renal. Also, in the assay with SNB-75 CNS, the TGI was over 100 µM.

With `CC(C)C(NCc1c(O)ccc2c(-c3ccccc3)cc(=O)oc12)C(=O)O` (configuration not stated), the TGI in the assay with 786-0 renal, with A549 NSCLC, in the assay on ACHN renal, in the assay with HCC-2998 colon, with HOP-62 NSCLC and in the assay with K-562 leukemia was over 100 µM in each case. Also, the TGI in the assay on OVCAR-3 ovarian, with OVCAR-8 ovarian, in the assay on RPMI-8226 leukemia, in the assay on RXF 393 renal, with SK-MEL-28 melanoma and with SN12C renal was over 100 µM each time. Also, the TGI in the assay with SNB-75 CNS is over 100 µM.

For the molecule `O=c1ccn(C2OC(CN(O)CCC3C(CO)OC(n4ccc(=O)[nH]c4=O)C3O)C(O)C2O)c(=O)[nH]1` (configuration not stated), the TGI with 786-0 renal, in the assay with A549 NSCLC, in the assay on ACHN renal, in the assay on HCC-2998 colon, with HOP-62 NSCLC and in the assay with K-562 leukemia was over 100 µM in each case. In addition, the TGI with OVCAR-3 ovarian, in the assay with OVCAR-8 ovarian, in the assay with RPMI-8226 leukemia, in the assay with RXF 393 renal, with SK-MEL-28 melanoma and with SN12C renal was over 100 µM throughout. In the assay on SNB-75 CNS, this molecule returned a TGI of over 100 µM.

On to `O=c1oc2ccc([N+](=O)[O-])cc2c(Nc2ccc3c(c2)S(=O)(=O)c2ccccc2O3)c1[N+](=O)[O-]`, for which the TGI in the assay on 786-0 renal, in the assay with A549 NSCLC, in the assay with ACHN renal, in the assay on HCC-2998 colon, in the assay on HOP-62 NSCLC and in the assay on K-562 leukemia was over 100 µM each time. The TGI in the assay with OVCAR-3 ovarian, in the assay with OVCAR-8 ovarian, in the assay with RPMI-8226 leukemia, in the assay with RXF 393 renal, with SK-MEL-28 melanoma and with SN12C renal was over 100 µM in each case. In the assay with SNB-75 CNS, this molecule yielded a TGI of over 100 µM.

Take `N#CC(C#N)=Cn1c(=S)[nH]c2ccccc21`: the TGI with 786-0 renal, with A549 NSCLC, in the assay on ACHN renal, in the assay on HCC-2998 colon, in the assay with HOP-62 NSCLC and in the assay with K-562 leukemia was over 100 µM in each case. Further, the TGI in the assay with OVCAR-3 ovarian, in the assay with OVCAR-8 ovarian, in the assay on RPMI-8226 leukemia, in the assay with RXF 393 renal, in the assay with SK-MEL-28 melanoma and with SN12C renal was over 100 µM throughout. The same molecule had a TGI in the assay on SNB-75 CNS of over 100 µM.

Regarding `CC(C)C(NC(=O)C(Cc1ccccc1)NC(=O)[C@H]1CCC[C@H]1NC(=O)C(N)Cc1ccc(O)cc1)C(N)=O` (some centres not stated), the TGI in the assay on 786-0 renal, in the assay on A549 NSCLC, in the assay with ACHN renal, in the assay with HCC-2998 colon, in the assay with HOP-62 NSCLC and with K-562 leukemia was over 100 µM each time. Further, the TGI in the assay with OVCAR-3 ovarian, with OVCAR-8 ovarian, in the assay with RPMI-8226 leukemia, in the assay with RXF 393 renal, in the assay with SK-MEL-28 melanoma and in the assay on SN12C renal was over 100 µM in each case. In the assay on SNB-75 CNS, this molecule registered a TGI of over 100 µM.

Turning to `COc1ccc(CCNCCCC2c3ccccc3-c3ccccc32)cc1OC`, the TGI in the assay with 786-0 renal turned out to be 28.9 µM; in the assay on A549 NSCLC it was 31.4 µM; in the assay on ACHN renal it was 29.6 µM; with HCC-2998 colon it was 3.88 µM; with HOP-62 NSCLC, 30 µM; with K-562 leukemia it was 49.2 µM. Moreover, the TGI amounted to 31.2 µM in the assay on OVCAR-3 ovarian; 41.8 µM in the assay on OVCAR-8 ovarian; 22 µM in the assay with RPMI-8226 leukemia; 26.1 µM in the assay on RXF 393 renal; 23.1 µM in the assay with SK-MEL-28 melanoma; 28.7 µM with SN12C renal. The TGI in the assay on SNB-75 CNS worked out at 27.2 µM.

For the molecule `COCCOC(=O)C(C)=[N+]=[N-]`, the TGI with 786-0 renal, in the assay with ACHN renal, in the assay on HCC-2998 colon, in the assay on HOP-62 NSCLC, with K-562 leukemia and in the assay on OVCAR-3 ovarian was over 100 µM each time. In addition, the TGI in the assay with OVCAR-8 ovarian, in the assay on RPMI-8226 leukemia, in the assay with RXF 393 renal, with SK-MEL-28 melanoma, in the assay on SN12C renal and with SNB-75 CNS was over 100 µM each time.

For the origin of these results see PubChem BioAssay (NCI).
